Substitutions are numbered along the chain they refer to. Where two headings read alike, the source gives them in different places. Each block holds one molecule with its values, some of them ahead of it.
How the values were obtained:
[1] = cited from earlier work
[2] = test system: mice with stroke; settings: cited from earlier work
[3] = cited from earlier work; remark: listed apart in the source
[4] = cited from earlier work; remark: listed apart in the source
[5] = cited from earlier work; remark: listed apart in the source
[6] = target: T1, hGAT3-C316S (Homo sapiens, UniProt P48066, C316S); experiment: [3H]GABA competition uptake assay, hGAT3-C316S mutant in HEK293T cells; assay type: cell-based
T1 sequence (P48066 1-632 C316S): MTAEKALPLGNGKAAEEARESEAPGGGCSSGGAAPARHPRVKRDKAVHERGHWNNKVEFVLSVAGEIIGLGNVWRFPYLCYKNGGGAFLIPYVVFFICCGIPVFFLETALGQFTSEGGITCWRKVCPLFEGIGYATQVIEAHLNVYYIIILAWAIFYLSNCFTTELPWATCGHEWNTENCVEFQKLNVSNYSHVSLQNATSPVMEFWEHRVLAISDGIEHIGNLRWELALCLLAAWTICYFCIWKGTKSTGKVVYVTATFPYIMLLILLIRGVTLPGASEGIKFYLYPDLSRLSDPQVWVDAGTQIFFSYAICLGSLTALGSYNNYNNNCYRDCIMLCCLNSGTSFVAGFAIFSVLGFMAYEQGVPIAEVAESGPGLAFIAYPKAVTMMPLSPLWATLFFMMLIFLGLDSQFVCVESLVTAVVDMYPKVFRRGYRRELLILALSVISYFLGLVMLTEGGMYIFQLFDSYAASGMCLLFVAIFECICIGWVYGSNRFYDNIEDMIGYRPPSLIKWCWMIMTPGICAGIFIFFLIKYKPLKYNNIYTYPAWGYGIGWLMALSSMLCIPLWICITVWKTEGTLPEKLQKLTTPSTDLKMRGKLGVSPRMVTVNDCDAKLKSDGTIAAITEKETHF

[7] = target: T2, hGAT3 (Homo sapiens, UniProt P48066); experiment: [3H]GABA competition uptake assay, wild-type hGAT3 in HEK293T cells; assay type: cell-based
T2 sequence (P48066 1-632): T1 sequence (P48066 1-632 C316S) with S316C

[8] = target: T2, hGAT3; experiment: FLIPR membrane potential; assay type: cell-based
[9] = target: T3, hGAT3-eGFP (Homo sapiens, UniProt P48066); experiment: Confocal microscopy of membrane-localized hGAT3-eGFP fluorescence; assay type: cell-based; settings: 100 µM SR-THAP; 1 h incubation; versus buffer
T3 sequence (P48066 1-632): T1 sequence (P48066 1-632 C316S) with S316C

[10] = target: T2, hGAT3; experiment: [3H]GABA uptake kinetic; assay type: cell-based; settings: with and without preincubation

Structure (SMILES): COc1ccc(C(OCCN2CCC[C@H](C(=O)O)C2)(c2ccc(OC)cc2)c2ccc(OC)cc2)cc1 [(S)-SNAP-5114, (S)−1-{2-[Tris(4-methoxyphenyl)methoxy]ethyl}piperidine-3-carboxylic acid]
chemical stability [1]: poor
in vivo toxicity [2]: severe in vivo toxicity
cellular toxicity [3]: cellular toxicity
brain uptake after systemic administration [4]: limited
solubility [5]: limited

IC50 ([6]; read-out: IC50, inhibition of [3H]GABA uptake by hGAT3-C316S, 120 min preincubation): 10.6 µM
time to equilibrium between extracellular and cytosolic compound ([7]; from preincubation time course): ≤ 15 min
IC50 ([7]; read-out: IC50, inhibition of [3H]GABA uptake by hGAT3, 120 min preincubation (with preincubation), HEK293T cells): 4.9 µM
increase in potency after 120-min preincubation ([7]; versus without preincubation): five-fold
substrate-like response / transport in FMP assay ([8]; 50 µM GABA, 20 µM SR-THAP, compared with buffer): no substrate-like response
mode of inhibition (FMP Michaelis-Menten kinetics) ([8]; absence of preincubation): non-competitive
surface expression of hGAT3 (membrane-localized eGFP fluorescence) [9]: No difference
mode of inhibition ([3H]GABA uptake kinetics) [10]: non-competitive
Structure (SMILES): COc1ccc(C(/C=C/CN2CCC[C@@H]2[C@H](O)C(=O)O)(c2ccc(OC)cc2)c2ccc(OC)cc2)cc1 [SR-THAP, (2S, 2′R)−2-hydroxy-2-(1-((E)−4,4,4-tris(4-methoxyphenyl)but-2-en-1-yl)pyrrolidin-2′-yl)acetic acid]

IC50 [6]: 4.2 µM
IC50 [7]: 6.9 µM
Structure (SMILES): NCCCC(=O)O [GABA, γ-Aminobutyric acid, reference compound]

— article PMC12916826 (Nature Communications, 2026)
